# Read-outs that look alike come from different tables or passages of the source.
# Legend:
# [1] = tested on: HSG cells
# From the text: HSG cells were a generous gift from […]. M. Sato (Tokushima University, Japan) (Shirasuna et al., Cancer 48:745, 1981) and were maintained in vitro as previously described (He et al., Pflugers Arch., 36:416, 1990). For the experiments presented herein, HSG cells were dispersed from semi-confluent plates using a solution of Versene 1:5000 in Hanks' balanced salt solution without calcium and magnesium (BioFluids, Rockville Md.). Cells were then resuspended in fresh media consisting of a 1:1 mixture of Eagle's Minimal Essential Medium, (Dulbecco's Modification) and Ham's F-12 supplemented with 2 mM glutamine (BioFluids), 10% fetal calf serum (Hyclone, Logan, Utah), and 100 units/ml penicillin, 100 μg/ml streptomycin and 2.5 μg/ml fungizone (BioFluids).
# Cells were grown in 96-well culture plates at a density of 1×10^4 cells/well. […] Six hours after infection, GCV (Cytovene®, Syntex Laboratories, Inc., Palo Alto Calif.) was added to the media at concentrations of 0.5, 5, or 50 μM. After incubation for different time points, the sensitivity of cells to the GCV prodrug was evaluated using two separate methods, assaying either with the tetrazolium salt of 3-(4,5-dimethylthiazol-2-yl)-2,5-diphenyl […] bromide (MTT assay, Chemicon International Inc., Temecula, Calif.) or direct cell counting after trypan blue staining (Bio-Whittaker, Walkersville, Md.).
# To assess the ability of the HSV-tk transgene to function in HSG cells, cell viability was studied on tissue culture plastic using the MTT assay. HSG cells were infected with different vector MOIs, and thereafter incubated with several concentrations of GCV (Candotti et al., Cancer Gene Ther., 7:574, 2000).
# [2] = tested on: HSG cells; test: Trypan blue staining and manual cell counting on plastic; assay type: cell-based, human; settings: cells infected with AdLTR.CMV-tk at a MOI of 10; 0.5, 5, 50 μM GCV
# From the text: HSG cells were a generous gift from […].
# To determine the surviving cell number under these growth conditions on a plastic substrate following GCV treatment, in separate experiments trypan blue staining was used as well as manual cell counting.
# [3] = tested on: HSG cells; test: Cell death on fibronectin-coated poly-L-lactic acid disks (crystal violet staining, cell count); assay type: cell-based, human; settings: for cell death: cells infected with AdLTR.CMV-tk (MOI of 10)
# Method: Two-dimensional films of poly-L-lactic acid (Boehringer Ingelheim Inc., Winchester, Va.) were produced by melt processing polymer pellets between sheets of aluminum foil using a Carver press at 350° F. to create disks with diameters of 20-25 mm. The disks were sterilized using y-irradiation for ˜150 min with a dose of 20,000 Gy.
# Disks were gently placed in each well of a 6-well tissue culture plate (Becton Dickinson, Franklin Lakes, N.J.) and immersed in phosphate-buffered saline (PBS; GibcoBRL, Grand Island, N.Y.) for 18 hours with 5 μg/ml fibronectin at 37° C. (Aframian et al., Tissue Engin. 6:209, 2000). Thereafter, the coated disks were blocked for 1 hr with bovine serum albumin (Calbiochem-Novabiochem Corp., La Jolla, Calif.) at 37° C. and then gently washed twice with PBS (Aframian et al., op. cit.). Cell suspensions (1×10^5 cells; 2 ml/well) were added in complete culture medium and incubated at 37° C. for an additional 18 hours. Thereafter, the medium was discarded, and 10 MOI of virus diluted in PBS was added for an additional 6 hr. Next, GCV diluted in medium was added, and after an additional 125 hr the disks were washed twice in PBS, then stained with 0.2% crystal violet in 20% ethanol for 20 min (Aframian et al., op. cit). The disks were then rinsed twice with PBS and examined under a light microscope using a 10× objective. Three randomly selected photomicrographs were obtained from each specimen using 200 ASA color slide film (Elite chrome, Kodak, Rochester, N.Y.). The slides were scanned to convert them to digital images and, using Adobe Photoshop®, three 200 μm^2 regions were randomly chosen from each field, and cell number was determined visually.
# An artificial salivary gland device will have cells grown as a monolayer on a fibronectin-coated poly-L-lactic acid substratum (Aframian et al., Tissue Engin. 6:209, 2000), rather than on tissue culture plastic. Therefore, the ability of GCV to elicit HSG cell death when the cells were attached to poly-L-lactic acid disks pre-coated with 5 μg/ml of human fibronectin was determined. […] The GCV effect ranged from 40% cell death at 0.5 μM GCV to 95% cell death when the GCV concentration was 50 μM.
structure (smiles),measurement,setting,value
"Nc1nc(O)c2ncn(COC(CO)CO)c2n1 [GCV, ganciclovir]",effect on HSG cell growth and viability,"[1]; GCV doses up to 50 μM, absence of AdLTR.CMV-tk infection",does not affect
same,effect of GCV on viability,[1]; cells infected with AdLTR.CMV-tk at a MOI of 1,without effect
same,reduced viability compared to no GCV treatment,"[1]; cells infected with AdLTR.CMV-tk at a MOI of 10, all prodrug concentrations (0.5, 5, 50 μM)",> 50%
same,effect of GCV on viability,"[1]; uninfected cells, 0.5, 5, 50 μM GCV",without effect
same,decrease in number of viable cells compared with cells infected with 10 MOI alone,[2],up to 3 fold
same,appearance of cell monolayers,"[3]; 50 μM GCV alone, no infection",appeared normal
same,cells remaining on the disk,[3]; AdLTR.CMV-tk at a MOI of 10 followed by 50 μM of GCV,loss of almost all of the cells
same,cell death,[3]; 0.5 μM GCV,40%
same,cell death,[3]; 50 μM GCV,95%

# — patent US7618623B2, “Hybrid adeno-retroviral vector for the transfection of cells” (priority 2000, dated 2009)
